Calls of active or inactive are those of the source. The rule behind the calls is not given here.
Assays:
[1] = target: Cholinesterase (Equus caballus) (UniProt P81908); assay: Inhibition of equine serum BChE at 10 uM pre-incubated for 5 mins before butyrylthiocholineiodide substrate addition by Ellman's method
[2] = target: Acetylcholinesterase (Electrophorus electricus) (UniProt O42275); assay: Inhibition of Electrophorus electricus AChE at 10 uM pre-incubated for 5 mins before acetylthiocholine iodide substrate addition by Ellman's method
Acetylcholinesterase = Acetylcholinesterase (Electrophorus electricus, UniProt O42275)
Description: Inhibition of Electrophorus electricus AChE pre-incubated for 5 mins before acetylthiocholine iodide substrate addition by Ellman's method

Cholinesterase = Cholinesterase (Equus caballus, UniProt P81908)
Description: Inhibition of equine serum BChE pre-incubated for 5 mins before butyrylthiocholineiodide substrate addition by Ellman's method

[3] = target: Acetylcholinesterase (Electrophorus electricus) (UniProt O42275); assay: Mixed type inhibition of Electrophorus electricus AChE assessed as reduction in enzyme Vmax at 5 to 80 nM pre-incubated for 5 mins before acetylthiocholine iodide substrate addition by Lineweaver-Burk plot
[4] = target: Acetylcholinesterase (Electrophorus electricus) (UniProt O42275); assay: Mixed type inhibition of Electrophorus electricus AChE assessed as increase in enzyme Km at 5 to 80 nM pre-incubated for 5 mins before acetylthiocholine iodide substrate addition by Lineweaver-Burk plot

Chain of Acetylcholinesterase (O42275 whole entry): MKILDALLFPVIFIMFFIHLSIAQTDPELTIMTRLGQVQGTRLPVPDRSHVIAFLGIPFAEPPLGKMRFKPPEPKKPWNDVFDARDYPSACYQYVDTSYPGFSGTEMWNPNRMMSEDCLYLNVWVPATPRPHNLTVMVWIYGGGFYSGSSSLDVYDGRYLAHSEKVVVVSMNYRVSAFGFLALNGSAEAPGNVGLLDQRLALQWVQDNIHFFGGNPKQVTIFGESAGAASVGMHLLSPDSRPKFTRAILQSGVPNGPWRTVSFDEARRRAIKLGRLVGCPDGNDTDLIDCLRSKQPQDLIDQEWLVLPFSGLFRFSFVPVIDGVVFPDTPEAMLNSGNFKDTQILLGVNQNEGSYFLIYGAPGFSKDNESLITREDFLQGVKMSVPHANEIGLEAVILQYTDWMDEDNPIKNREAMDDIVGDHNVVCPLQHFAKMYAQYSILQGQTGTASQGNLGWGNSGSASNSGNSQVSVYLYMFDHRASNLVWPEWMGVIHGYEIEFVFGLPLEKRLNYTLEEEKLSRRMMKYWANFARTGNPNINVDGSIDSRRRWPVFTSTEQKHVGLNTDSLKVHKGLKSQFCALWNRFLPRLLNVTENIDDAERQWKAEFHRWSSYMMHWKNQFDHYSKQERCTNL
Chain of Acetylcholinesterase (Electrophorus electricus) (O42275 24-633 limits assumed): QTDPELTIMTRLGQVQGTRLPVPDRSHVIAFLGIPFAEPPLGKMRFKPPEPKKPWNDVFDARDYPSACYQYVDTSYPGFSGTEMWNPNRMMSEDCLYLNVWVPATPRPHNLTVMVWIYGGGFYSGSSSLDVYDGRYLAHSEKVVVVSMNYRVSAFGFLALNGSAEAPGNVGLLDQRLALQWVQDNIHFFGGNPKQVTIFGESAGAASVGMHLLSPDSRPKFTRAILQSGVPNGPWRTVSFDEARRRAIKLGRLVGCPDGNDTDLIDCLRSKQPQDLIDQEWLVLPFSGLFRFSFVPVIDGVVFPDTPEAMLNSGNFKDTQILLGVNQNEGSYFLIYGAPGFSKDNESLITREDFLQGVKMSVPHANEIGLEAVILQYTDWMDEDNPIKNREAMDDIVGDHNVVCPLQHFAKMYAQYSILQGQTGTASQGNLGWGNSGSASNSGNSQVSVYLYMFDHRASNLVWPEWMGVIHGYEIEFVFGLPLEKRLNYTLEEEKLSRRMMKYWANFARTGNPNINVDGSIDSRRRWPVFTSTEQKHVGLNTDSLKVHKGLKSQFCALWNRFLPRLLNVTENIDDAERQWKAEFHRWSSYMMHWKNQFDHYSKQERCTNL
Chain of Cholinesterase (P81908 whole entry): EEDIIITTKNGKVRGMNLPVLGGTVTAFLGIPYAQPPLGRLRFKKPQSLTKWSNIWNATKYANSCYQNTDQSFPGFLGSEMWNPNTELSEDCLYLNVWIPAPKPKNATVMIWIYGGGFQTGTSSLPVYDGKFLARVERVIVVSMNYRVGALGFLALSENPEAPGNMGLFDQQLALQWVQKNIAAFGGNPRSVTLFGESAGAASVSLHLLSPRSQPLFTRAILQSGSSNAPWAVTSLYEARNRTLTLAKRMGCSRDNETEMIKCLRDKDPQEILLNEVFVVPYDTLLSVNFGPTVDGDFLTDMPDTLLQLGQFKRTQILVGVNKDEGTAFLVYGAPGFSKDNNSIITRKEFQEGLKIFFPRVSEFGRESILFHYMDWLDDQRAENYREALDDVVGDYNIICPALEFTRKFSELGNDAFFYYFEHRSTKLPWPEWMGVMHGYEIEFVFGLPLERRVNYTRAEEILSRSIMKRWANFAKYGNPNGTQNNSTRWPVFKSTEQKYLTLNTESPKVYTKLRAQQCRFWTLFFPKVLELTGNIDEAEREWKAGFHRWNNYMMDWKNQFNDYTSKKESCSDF
Chain of Cholinesterase (Equus caballus) (P81908 whole entry): as above

| Structure (SMILES) | inhibition [1] | inhibition [2] | IC50 (Acetylcholinesterase) | IC50 (Cholinesterase) | inhibition [3] | inhibition [4] |
| --- | --- | --- | --- | --- | --- | --- |
| Nc1c(N)c2ccccc2oc1=O | 27.9% | 8.33% | – | – | – | – |
| Nc1ccc2nc3n(c(=O)c2c1)CCC3 | 31.7% | 59.2% | – | – | – | – |
| Oc1nc(S)nc2c1CCCN2 | 30.4% | 68.3% | – | – | – | – |
| CC1(C)CC(=O)c2c(nc3ccccc3c2N)C1 | 85% | 92.8% | 7190 nM | 36200 nM | – | – |
| CC(=O)c1oc2ccccc2c1N | 49.2% | 13.3% | – | – | – | – |
| Nc1c2c(nc3c4c(nn13)CCC4)CCC2 | 59.2% | 76.7% | 7410 nM | 60900 nM | – | – |
| Nc1c2c(nc3c1CCC3)CCCC2 [IPIDACRINE] | 99% | 98.7% | 170 nM | 70 nM | – | – |
| CC(=O)c1c(C)nc2ccccc2c1N | 99.7% | 96.9% | 320 nM | 460 nM | Active | Active |
| Nc1c2c(nc3c1C1CCCCC1S3)CCCC2 (stereo not given) | 98.8% | 95.6% | 30 nM | 330 nM | Active | Active |
| Nc1nc(O)c2c(n1)CCC2 | 45.8% | 45.6% | – | – | – | – |
| O=c1c(Br)c[nH]c2cccnc12 | 24.2% | 28.3% | – | – | – | – |
| Nc1nc(N)c2c(n1)CCC2 | 46.7% | 50.8% | – | – | – | – |
| Cc1cccc2c(N)c3c(nc12)N(C)CC3 | 90.8% | 89.7% | 1150 nM | 15900 nM | – | – |
| COc1ccc2nc(C(F)(F)F)c(C#N)c(N)c2c1 | 35.4% | 85% | 690 nM | 30700 nM | – | – |
| CN1CCNc2nc3ccccc3nc21 | 42.1% | 26.1% | – | – | – | – |
| O=C1c2ccccc2NC2=NCCCN12 | 42.5% | 26.7% | – | – | – | – |
| Nc1c2c(nc3sccc13)CCCC2 | 98.2% | 99.8% | 260 nM | 110 nM | – | – |
| Nc1c2c(nc3ccccc13)N(Cc1ccccc1)CC2 | 99.8% | 96.4% | 740 nM | 2250 nM | – | – |
| Oc1ccnc2ccccc12 | 28.8% | 32.5% | – | – | – | – |
| CCCCN1CCc2c1nc1ccc(Br)cc1c2N | 92.5% | 90.6% | 300 nM | 8920 nM | – | – |
| Nc1nc(N)c2c(Br)cccc2n1 | 82.5% | 76.9% | – | – | – | – |
| O=c1c2ccccc2nc2n1CCCS2 | 45% | 59.2% | – | – | – | – |
| N#CCSc1nc(N)c2c3c(sc2n1)CCCC3 | 65.4% | 34.2% | – | – | – | – |

From ChEMBL document CHEMBL3603767, “Discovery of new acetylcholinesterase inhibitors with small core structures through shape-based virtual screening” (Bioorg Med Chem Lett, 2015)
